Assay results reported in US20240092835A1, “NOVEL PEPTIDES CAPABLE OF ALTERING NK CELL ACTIVITY” (Massachusetts Institute of Technology, priority 2022, published 2024).
Where no end group is shown, it is not given here.

Key:
[1] = tested on: NKG2A+/NKG2C− NK cells; assay: NK cell activation markers in NKG2A+/NKG2C- NK cells incubated with peptide and K562 expressing HLA-E (inhibition); format: cell-based, human; conditions: for effect on NKG2A+/NKG2C− NK cell inhibition (in words): K562 expressing HLA-E, CD107a, IFNG, TNF, CCL3; for percentage of CCL3+ NK cells / percentage of CD107a+ NK cells / percentage of IFNG+ NK cells / percentage of TNF+ NK cells: NKG2A+/NKG2C- NK cells, K562/HLA-E
Procedure, shortened: (§1)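 HLA-E-expressing K562 cells incubated with peptides from human or human cytomegalovirus proteomes, then with NK cell subsets sorted by NKG2A/NKG2C status. Read-out is percent of cells positive for surface markers; a rise indicates activation, a fall inhibition.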

[2] = tested on: NKG2A−/NKG2C+ NK cells; assay: NK cell activation markers in NKG2A-/NKG2C+ NK cells incubated with peptide and K562 expressing HLA-E (activation); format: cell-based, human; conditions: for effect on NKG2A−/NKG2C+ NK cell activation (in words): K562 expressing HLA-E, CD107a, IFNG, TNF, CCL3; for percentage of CCL3+ NK cells / percentage of CD107+ NK cells / percentage of IFNG+ NK cells / percentage of TNF+ NK cells: NKG2A-/NKG2C+ NK cells, K562/HLA-E
Procedure, shortened: as §1

[3] = tested on: NKG2A−/NKG2C− NK cells; assay: NK cell activation markers in control NKG2A-/NKG2C- NK cells incubated with peptide and K562 expressing HLA-E; format: cell-based, human
Procedure, shortened: as §1

[4] = tested on: NKG2A−/NKG2C+ NK cells; assay: NKG2A-/NKG2C+ NK cell activation with peptide and RMA-S cells expressing HLA-E; format: cell-based; conditions: RMA-S cells expressing HLA-E
Procedure, shortened: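 RMA-S cells with low HLA-E expression were loaded with peptides and tested against NKG2A−/NKG2C+ NK cells, with two reference peptide sequences as controls. Activation read as percent cells positive for CD107a, IFNG, TNF and CCL3.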

[5] = molecular target: CD94/NKG2A (Homo sapiens, UniProt P26715+Q13241); assay: Steady-state surface plasmon resonance of peptide-HLA-E complex with CD94/NKG2A; format: binding; conditions: for Binding of peptide-HLA-E complexes to CD94/NKG2A normalized to a theoretical Rmax: steady-state SPR
CD94/NKG2A, sequence (P26715 94-233 limits assumed): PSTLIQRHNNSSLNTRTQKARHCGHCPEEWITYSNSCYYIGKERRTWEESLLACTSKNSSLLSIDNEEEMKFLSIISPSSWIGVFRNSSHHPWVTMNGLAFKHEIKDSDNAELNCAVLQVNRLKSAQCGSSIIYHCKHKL
CD94/NKG2A, sequence (Q13241 32-179 limits assumed): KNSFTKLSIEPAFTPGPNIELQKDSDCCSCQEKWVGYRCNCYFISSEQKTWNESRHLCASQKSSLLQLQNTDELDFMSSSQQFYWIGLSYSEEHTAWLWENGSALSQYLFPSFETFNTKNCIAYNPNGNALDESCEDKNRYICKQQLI

VNPGRSLFL [human5, VNPGRSLFL]
effect on NKG2A+/NKG2C− NK cell inhibition (in words) ([1]; listed as SEQ ID NO. 3): no or minimal effect
effect on NKG2A+/NKG2C− NK cell inhibition (in words) ([1]; listed as h5): no effect
percentage of CCL3+ NK cells ([1]; Trial 1): 51.6%
percentage of CD107a+ NK cells ([1]; Trial 1): 36.8%
percentage of IFNG+ NK cells ([1]; Trial 1): 16.9%
percentage of TNF+ NK cells ([1]; Trial 1): 7.26%
percentage of CCL3+ NK cells ([1]; Trial 2): 71.6%
percentage of CD107a+ NK cells ([1]; Trial 2): 48.4%
percentage of IFNG+ NK cells ([1]; Trial 2): 28.8%
percentage of TNF+ NK cells ([1]; Trial 2): 14.6%
percentage of CCL3+ NK cells ([1]; Trial 3): 55.3%
percentage of CD107a+ NK cells ([1]; Trial 3): 43.1%
percentage of IFNG+ NK cells ([1]; Trial 3): 30.8%
percentage of TNF+ NK cells ([1]; Trial 3): 19.4%
percentage of CCL3+ NK cells ([1]; Trial 4): 40.9%
percentage of CD107a+ NK cells ([1]; Trial 4): 33.4%
percentage of IFNG+ NK cells ([1]; Trial 4): 17.9%
percentage of TNF+ NK cells ([1]; Trial 4): 10.7%
percentage of CCL3+ NK cells ([1]; Trial 5): 44.2%
percentage of CD107a+ NK cells ([1]; Trial 5): 30.4%
percentage of IFNG+ NK cells ([1]; Trial 5): 16.5%
percentage of TNF+ NK cells ([1]; Trial 5): 7.74%
percentage of CCL3+ NK cells ([1]; Trial 6): 33.1%
percentage of CD107a+ NK cells ([1]; Trial 6): 26%
percentage of IFNG+ NK cells ([1]; Trial 6): 10.5%
percentage of TNF+ NK cells ([1]; Trial 6): 6.36%
effect on NKG2A−/NKG2C+ NK cell activation (in words) ([2]; listed as SEQ ID NO. 3): activate
effect on NKG2A−/NKG2C+ NK cell activation (in words) ([2]; listed as h5): activated
percentage of CCL3+ NK cells ([2]; Trial 1): 60.9%
percentage of CD107+ NK cells ([2]; Trial 1): 59.7%
percentage of IFNG+ NK cells ([2]; Trial 1): 35.3%
percentage of TNF+ NK cells ([2]; Trial 1): 17.4%
percentage of CCL3+ NK cells ([2]; Trial 2): 74.5%
percentage of CD107+ NK cells ([2]; Trial 2): 61.8%
percentage of IFNG+ NK cells ([2]; Trial 2): 43.2%
percentage of TNF+ NK cells ([2]; Trial 2): 23.9%
percentage of CCL3+ NK cells ([2]; Trial 3): 72.5%
percentage of CD107+ NK cells ([2]; Trial 3): 72.6%
percentage of IFNG+ NK cells ([2]; Trial 3): 57.2%
percentage of TNF+ NK cells ([2]; Trial 3): 42.2%
percentage of CCL3+ NK cells ([2]; Trial 4): 63.8%
percentage of CD107+ NK cells ([2]; Trial 4): 64.3%
percentage of IFNG+ NK cells ([2]; Trial 4): 51.1%
percentage of TNF+ NK cells ([2]; Trial 4): 36%
percentage of CCL3+ NK cells ([2]; Trial 5): 69.7%
percentage of CD107+ NK cells ([2]; Trial 5): 67.6%
percentage of IFNG+ NK cells ([2]; Trial 5): 53.4%
percentage of TNF+ NK cells ([2]; Trial 5): 40.4%
percentage of CCL3+ NK cells ([2]; Trial 6): 47.2%
percentage of CD107+ NK cells ([2]; Trial 6): 46.8%
percentage of IFNG+ NK cells ([2]; Trial 6): 28.6%
percentage of TNF+ NK cells ([2]; Trial 6): 15%
percentage CCL3+ NK cells ([3]; Trial 1): 33%
percentage CD107+ NK cells ([3]; Trial 1): 26.5%
percentage TNF+ NK cells ([3]; Trial 1): 4.11%
percentage of IFNG+ NK cells ([3]; Trial 1): 14.6%
percentage CCL3+ NK cells ([3]; Trial 2): 55.5%
percentage CD107+ NK cells ([3]; Trial 2): 32.5%
percentage TNF+ NK cells ([3]; Trial 2): 10.4%
percentage of IFNG+ NK cells ([3]; Trial 2): 26.3%
percentage CCL3+ NK cells ([3]; Trial 3): 53.4%
percentage CD107+ NK cells ([3]; Trial 3): 48.1%
percentage TNF+ NK cells ([3]; Trial 3): 18%
percentage of IFNG+ NK cells ([3]; Trial 3): 41.4%
percentage CCL3+ NK cells ([3]; Trial 4): 30.6%
percentage CD107+ NK cells ([3]; Trial 4): 27.8%
percentage TNF+ NK cells ([3]; Trial 4): 9.09%
percentage of IFNG+ NK cells ([3]; Trial 4): 18.7%
percentage CCL3+ NK cells ([3]; Trial 5): 23.5%
percentage CD107+ NK cells ([3]; Trial 5): 19%
percentage TNF+ NK cells ([3]; Trial 5): 6.08%
percentage of IFNG+ NK cells ([3]; Trial 5): 14.6%
percentage CCL3+ NK cells ([3]; Trial 6): 22%
percentage CD107+ NK cells ([3]; Trial 6): 20.1%
percentage TNF+ NK cells ([3]; Trial 6): 4.34%
percentage of IFNG+ NK cells ([3]; Trial 6): 10.7%
NKG2A−/NKG2C+ NK cell activation relative to positive control peptides (in words) ([4]; listed as SEQ ID NO. 3): strongest activation of NK cells, comparable with the positive control peptides for several markers assessed
NKG2A−/NKG2C+ NK cell activation relative to positive control peptides (in words) ([4]; listed as h5): strongest NK cell activation, comparable with the positive control peptides for several markers assessed
binding of peptide-HLA-E complex to CD94/NKG2A normalized to a fitted Rmax ([5]; CD94/NKG2A concentration 0 μM): −0.002
binding of peptide-HLA-E complex to CD94/NKG2A normalized to a fitted Rmax ([5]; CD94/NKG2A concentration 0.1 μM): 0.177
binding of peptide-HLA-E complex to CD94/NKG2A normalized to a fitted Rmax ([5]; CD94/NKG2A concentration 0.2 μM): 0.288
binding of peptide-HLA-E complex to CD94/NKG2A normalized to a fitted Rmax ([5]; CD94/NKG2A concentration 0.4 μM): 0.434
binding of peptide-HLA-E complex to CD94/NKG2A normalized to a fitted Rmax ([5]; CD94/NKG2A concentration 0.8 μM): 0.593
binding of peptide-HLA-E complex to CD94/NKG2A normalized to a fitted Rmax ([5]; CD94/NKG2A concentration 1.6 μM): 0.739
binding of peptide-HLA-E complex to CD94/NKG2A normalized to a fitted Rmax ([5]; CD94/NKG2A concentration 3.2 μM): 0.863
binding of peptide-HLA-E complex to CD94/NKG2A normalized to a fitted Rmax ([5]; CD94/NKG2A concentration 6.4 μM): 0.955
binding of peptide-HLA-E complex to CD94/NKG2A normalized to a fitted Rmax ([5]; CD94/NKG2A concentration 12.8 μM): 1.018
binding of peptide-HLA-E complex to CD94/NKG2A normalized to a fitted Rmax ([5]; CD94/NKG2A concentration 25.6 μM): 1.059
binding of peptide-HLA-E complex to CD94/NKG2A normalized to a fitted Rmax ([5]; CD94/NKG2A concentration 51.2 μM): 1.081
binding of peptide-HLA-E complex to CD94/NKG2A normalized to a fitted Rmax ([5]; CD94/NKG2A concentration 102.4 μM): 1.105
Binding of peptide-HLA-E complexes to CD94/NKG2A normalized to a theoretical Rmax ([5]; CD94/NKG2A analyte concentration 0.000 μM): −0.001
Binding of peptide-HLA-E complexes to CD94/NKG2A normalized to a theoretical Rmax ([5]; CD94/NKG2A analyte concentration 0.100 μM): 0.074
Binding of peptide-HLA-E complexes to CD94/NKG2A normalized to a theoretical Rmax ([5]; CD94/NKG2A analyte concentration 0.200 μM): 0.120
Binding of peptide-HLA-E complexes to CD94/NKG2A normalized to a theoretical Rmax ([5]; CD94/NKG2A analyte concentration 0.400 μM): 0.181
Binding of peptide-HLA-E complexes to CD94/NKG2A normalized to a theoretical Rmax ([5]; CD94/NKG2A analyte concentration 0.800 μM): 0.247
Binding of peptide-HLA-E complexes to CD94/NKG2A normalized to a theoretical Rmax ([5]; CD94/NKG2A analyte concentration 1.600 μM): 0.308
Binding of peptide-HLA-E complexes to CD94/NKG2A normalized to a theoretical Rmax ([5]; CD94/NKG2A analyte concentration 3.200 μM): 0.360
Binding of peptide-HLA-E complexes to CD94/NKG2A normalized to a theoretical Rmax ([5]; CD94/NKG2A analyte concentration 6.400 μM): 0.398
Binding of peptide-HLA-E complexes to CD94/NKG2A normalized to a theoretical Rmax ([5]; CD94/NKG2A analyte concentration 12.800 μM): 0.425
Binding of peptide-HLA-E complexes to CD94/NKG2A normalized to a theoretical Rmax ([5]; CD94/NKG2A analyte concentration 25.600 μM): 0.442
Binding of peptide-HLA-E complexes to CD94/NKG2A normalized to a theoretical Rmax ([5]; CD94/NKG2A analyte concentration 51.200 μM): 0.451
Binding of peptide-HLA-E complexes to CD94/NKG2A normalized to a theoretical Rmax ([5]; CD94/NKG2A analyte concentration 102.400 μM): 0.461
